Measured values published in ChEMBL document CHEMBL4396865, “Current advances of triazole alcohols derived from fluconazole: Design, in vitro and in silico studies” (2019).
Values after ≈ are worked out from the molar mass of the structure shown.

How the values were obtained:
Format in all cases: functional
Cryptococcus neoformans [1] = experiment: Potency index, ratio of fluconazole MIC to test compound MIC for activity against Cryptococcus neoformans ATCC 32609
Aspergillus fumigatus [2] = experiment: Antifungal activity against Aspergillus fumigatus after 24 hrs by microbroth dilution method
Fonsecaea compacta [3] = experiment: Antifungal activity against Fonsecaea compacta after 24 hrs by microbroth dilution method
Microsporum canis [4] = experiment: Antifungal activity against Microsporum canis after 24 hrs by microbroth dilution method
Candida tropicalis [5] = experiment: Antifungal activity against Candida tropicalis after 24 hrs by microbroth dilution method
Trichophyton rubrum [6] = experiment: Potency index, ratio of fluconazole MIC to test compound MIC for Trichophyton rubrum
Fonsecaea compacta [7] = experiment: Potency index, ratio of fluconazole MIC to test compound MIC for Fonsecaea compacta
Candida tropicalis [8] = experiment: Potency index, ratio of fluconazole MIC to test compound MIC for Candida tropicalis
Trichophyton rubrum [9] = experiment: Antifungal activity against Trichophyton rubrum after 24 hrs by microbroth dilution method
Aspergillus fumigatus [10] = experiment: Potency index, ratio of fluconazole MIC to test compound MIC for Aspergillus fumigatus
Candida albicans [11] = experiment: Potency index, ratio of fluconazole MIC to test compound MIC for Candida albicans ATCC 76615
Microsporum canis [12] = experiment: Potency index, ratio of fluconazole MIC to test compound MIC for Microsporum canis
Pichia kudriavzevii = experiment: Antifungal activity against Candida krusei
Candida parapsilosis [13] = experiment: Antifungal activity against Candida parapsilosis; details: Lodderomyces parapsilosis
Candida tropicalis [14] = experiment: Antifungal activity against Candida tropicalis; details: Candida tropicalis
Cryptococcus neoformans [15] = experiment: Antifungal activity against Cryptococcus neoformans; details: Cryptococcus neoformans
Candida albicans [16] = experiment: Antifungal activity against Candida albicans; details: Candida albicans
Candida albicans [17] = experiment: Antifungal activity against fluconalzole-susceptible Candida albicans after 24 hrs
Candida parapsilosis [18] = experiment: Antifungal activity against fluconalzole-susceptible Candida parapsilosis after 24 hrs; details: Lodderomyces parapsilosis
Nannizzia gypsea = experiment: Antifungal activity against Microsporum gypseum after 7 days by NCCLS protocol based method; details: 168 h
Candida albicans [19] = experiment: Antifungal activity against Candida albicans after 24 hrs by NCCLS protocol based method
Trichophyton rubrum [20] = experiment: Antifungal activity against Trichophyton rubrum after 7 days by NCCLS protocol based method; details: 168 h
Cryptococcus neoformans [21] = experiment: Antifungal activity against Cryptococcus neoformans after 72 hrs by NCCLS protocol based method
Candida tropicalis [22] = experiment: Antifungal activity against Candida tropicalis after 24 hrs by NCCLS protocol based method

SMILES: Cc1ccccc1CN(CC(O)(Cn1cncn1)c1ccc(F)cc1F)C1CC1 (stereo not drawn)
- Ratio (Cryptococcus neoformans [1]): 4
- MIC80 (Aspergillus fumigatus [2]): 0.125 µg/mL (≈ 0.314 µM)
- MIC80 (Fonsecaea compacta [3]): 0.125 µg/mL (≈ 0.314 µM)
- MIC80 (Microsporum canis [4]): 0.125 µg/mL (≈ 0.314 µM)
- MIC80 (Candida tropicalis [5]): 0.125 µg/mL (≈ 0.314 µM)
- Ratio (Trichophyton rubrum [6]): 4
- Ratio (Fonsecaea compacta [7]): 4
- Ratio (Candida tropicalis [8]): 4
- MIC80 (Trichophyton rubrum [9]): 0.125 µg/mL (≈ 0.314 µM)
- Ratio (Aspergillus fumigatus [10]): 4
- Ratio (Candida albicans [11]): 4
- Ratio (Microsporum canis [12]): 4

SMILES: OC(CN(Cc1ccc(F)cc1F)C1CC1)(Cn1cncn1)c1ccc(F)cc1F (stereo not drawn)
- Ratio (Cryptococcus neoformans [1]): 4
- MIC80 (Aspergillus fumigatus [2]): 0.125 µg/mL (≈ 0.297 µM)
- MIC80 (Fonsecaea compacta [3]): 0.125 µg/mL (≈ 0.297 µM)
- MIC80 (Microsporum canis [4]): 0.125 µg/mL (≈ 0.297 µM)
- MIC80 (Candida tropicalis [5]): 0.125 µg/mL (≈ 0.297 µM)
- Ratio (Trichophyton rubrum [6]): 4
- Ratio (Fonsecaea compacta [7]): 4
- Ratio (Candida tropicalis [8]): 4
- MIC80 (Trichophyton rubrum [9]): 0.125 µg/mL (≈ 0.297 µM)
- Ratio (Aspergillus fumigatus [10]): 4
- Ratio (Candida albicans [11]): 4
- Ratio (Microsporum canis [12]): 4

SMILES: OC(CN(Cc1ccc(Br)cc1)C1CC1)(Cn1cncn1)c1ccc(F)cc1F (stereo not drawn)
- Ratio (Cryptococcus neoformans [1]): 4
- MIC80 (Aspergillus fumigatus [2]): 0.125 µg/mL (≈ 0.27 µM)
- MIC80 (Fonsecaea compacta [3]): 0.125 µg/mL (≈ 0.27 µM)
- MIC80 (Microsporum canis [4]): 0.125 µg/mL (≈ 0.27 µM)
- MIC80 (Candida tropicalis [5]): 0.125 µg/mL (≈ 0.27 µM)
- Ratio (Trichophyton rubrum [6]): 4
- Ratio (Fonsecaea compacta [7]): 4
- Ratio (Candida tropicalis [8]): 4
- MIC80 (Trichophyton rubrum [9]): 0.125 µg/mL (≈ 0.27 µM)
- Ratio (Aspergillus fumigatus [10]): 4
- Ratio (Candida albicans [11]): 4
- Ratio (Microsporum canis [12]): 4

SMILES: Cc1ccc(NC(=O)CN(C)CC(O)(Cn2cncn2)c2ccc(F)cc2F)c(C)c1 (stereo not drawn)
- MIC80 (Pichia kudriavzevii): 0.25 to 1 µg/mL (≈ 0.582 to 2.33 µM)
- MIC80 (Candida parapsilosis [13]): 0.25 to 1 µg/mL (≈ 0.582 to 2.33 µM)
- MIC80 (Candida tropicalis [14]): 0.25 to 1 µg/mL (≈ 0.582 to 2.33 µM)
- MIC80 (Cryptococcus neoformans [15]): 0.0156 µg/mL (≈ 0.0363 µM)
- MIC80 (Candida albicans [16]): 0.0156 µg/mL (≈ 0.0363 µM)

SMILES: OC(Cn1cncn1)(Cn1cnc(SCc2ccc(F)cc2)n1)c1ccc(F)cc1F (stereo not drawn)
- MIC (Candida albicans [17]): 0.063 to 1 µg/mL (≈ 0.141 to 2.24 µM)
- MIC (Candida parapsilosis [18]): 0.063 to 1 µg/mL (≈ 0.141 to 2.24 µM)

SMILES: CN(CC(=O)Nc1ccc(C(C)(C)C)cc1)CC(O)(Cn1cncn1)c1ccc(F)cc1F (stereo not drawn)
- MIC80 (Pichia kudriavzevii): 0.25 to 1 µg/mL (≈ 0.546 to 2.19 µM)
- MIC80 (Candida parapsilosis [13]): 0.25 to 1 µg/mL (≈ 0.546 to 2.19 µM)
- MIC80 (Candida tropicalis [14]): 0.25 to 1 µg/mL (≈ 0.546 to 2.19 µM)
- MIC80 (Cryptococcus neoformans [15]): 0.0156 µg/mL (≈ 0.0341 µM)
- MIC80 (Candida albicans [16]): 0.0156 µg/mL (≈ 0.0341 µM)

SMILES: OC(Cn1cncn1)(Cn1cnc(SCc2ccc(Cl)c(Cl)c2)n1)c1ccc(F)cc1F (stereo not drawn)
- MIC (Candida albicans [17]): 0.063 to 1 µg/mL (≈ 0.127 to 2.01 µM)
- MIC (Candida parapsilosis [18]): 0.063 to 1 µg/mL (≈ 0.127 to 2.01 µM)

SMILES: OC(Cn1cncn1)(Cn1cnc(SCc2ccccc2)n1)c1ccc(F)cc1F (stereo not drawn)
- MIC (Candida albicans [17]): 0.063 to 1 µg/mL (≈ 0.147 to 2.33 µM)
- MIC (Candida parapsilosis [18]): 0.063 to 1 µg/mL (≈ 0.147 to 2.33 µM)

SMILES: Cc1ccc(NC(=O)CN(C)CC(O)(Cn2cncn2)c2ccc(F)cc2F)cc1 (stereo not drawn)
- MIC80 (Pichia kudriavzevii): 0.25 to 1 µg/mL (≈ 0.602 to 2.41 µM)
- MIC80 (Candida parapsilosis [13]): 0.25 to 1 µg/mL (≈ 0.602 to 2.41 µM)
- MIC80 (Candida tropicalis [14]): 0.25 to 1 µg/mL (≈ 0.602 to 2.41 µM)
- MIC80 (Cryptococcus neoformans [15]): 0.0156 µg/mL (≈ 0.0376 µM)
- MIC80 (Candida albicans [16]): 0.0156 µg/mL (≈ 0.0376 µM)

SMILES: CN(CC(=O)Nc1cc(Cl)ccc1Cl)CC(O)(Cn1cncn1)c1ccc(F)cc1F (stereo not drawn)
- MIC80 (Pichia kudriavzevii): 0.25 to 1 µg/mL (≈ 0.532 to 2.13 µM)
- MIC80 (Candida parapsilosis [13]): 0.25 to 1 µg/mL (≈ 0.532 to 2.13 µM)
- MIC80 (Candida tropicalis [14]): 0.25 to 1 µg/mL (≈ 0.532 to 2.13 µM)
- MIC80 (Cryptococcus neoformans [15]): 0.0156 µg/mL (≈ 0.0332 µM)
- MIC80 (Candida albicans [16]): 0.0156 µg/mL (≈ 0.0332 µM)

SMILES: OC(CN(Cc1ccccc1F)C1CC1)(Cn1cncn1)c1ccc(F)cc1F (stereo not drawn)
- Ratio (Cryptococcus neoformans [1]): 4
- MIC80 (Aspergillus fumigatus [2]): 0.125 µg/mL (≈ 0.311 µM)
- MIC80 (Fonsecaea compacta [3]): 0.125 µg/mL (≈ 0.311 µM)
- MIC80 (Microsporum canis [4]): 0.125 µg/mL (≈ 0.311 µM)
- MIC80 (Candida tropicalis [5]): 0.125 µg/mL (≈ 0.311 µM)
- Ratio (Trichophyton rubrum [6]): 4
- Ratio (Fonsecaea compacta [7]): 4
- Ratio (Candida tropicalis [8]): 4
- MIC80 (Trichophyton rubrum [9]): 0.125 µg/mL (≈ 0.311 µM)
- Ratio (Aspergillus fumigatus [10]): 4
- Ratio (Candida albicans [11]): 4
- Ratio (Microsporum canis [12]): 4

SMILES: CN(CCCOc1ccc(Cl)cc1)CC(O)(Cn1cncn1)c1ccc(F)cc1F (stereo not drawn)
- MIC (Nannizzia gypsea): 0.001 µg/mL (≈ 0.00229 µM)
- MIC (Candida albicans [19]): 0.001 µg/mL (≈ 0.00229 µM)
- MIC (Trichophyton rubrum [20]): 0.001 µg/mL (≈ 0.00229 µM)
- MIC (Cryptococcus neoformans [21]): 0.001 µg/mL (≈ 0.00229 µM)
- MIC (Candida tropicalis [22]): 0.001 µg/mL (≈ 0.00229 µM)

SMILES: CN(CC(=O)Nc1ccc(F)cc1)CC(O)(Cn1cncn1)c1ccc(F)cc1F (stereo not drawn)
- MIC80 (Pichia kudriavzevii): 0.25 to 1 µg/mL (≈ 0.596 to 2.38 µM)
- MIC80 (Candida parapsilosis [13]): 0.25 to 1 µg/mL (≈ 0.596 to 2.38 µM)
- MIC80 (Candida tropicalis [14]): 0.25 to 1 µg/mL (≈ 0.596 to 2.38 µM)
- MIC80 (Cryptococcus neoformans [15]): 0.0156 µg/mL (≈ 0.0372 µM)
- MIC80 (Candida albicans [16]): 0.0156 µg/mL (≈ 0.0372 µM)

SMILES: CN(CCCOc1cccc([N+](=O)[O-])c1)CC(O)(Cn1cncn1)c1ccc(F)cc1F (stereo not drawn)
- MIC (Nannizzia gypsea): 0.001 to 0.016 µg/mL (≈ 0.00223 to 0.0358 µM)
- MIC (Candida albicans [19]): 0.001 to 0.016 µg/mL (≈ 0.00223 to 0.0358 µM)
- MIC (Trichophyton rubrum [20]): 0.001 to 0.016 µg/mL (≈ 0.00223 to 0.0358 µM)
- MIC (Cryptococcus neoformans [21]): 0.001 to 0.016 µg/mL (≈ 0.00223 to 0.0358 µM)
- MIC (Candida tropicalis [22]): 0.001 to 0.016 µg/mL (≈ 0.00223 to 0.0358 µM)

SMILES: O=[N+]([O-])c1ccc(CSc2ncn(CC(O)(Cn3cncn3)c3ccc(F)cc3F)n2)cc1 (stereo not drawn)
- MIC (Candida albicans [17]): 0.063 to 1 µg/mL (≈ 0.133 to 2.11 µM)
- MIC (Candida parapsilosis [18]): 0.063 to 1 µg/mL (≈ 0.133 to 2.11 µM)

SMILES: COc1ccccc1NC(=O)CN(C)CC(O)(Cn1cncn1)c1ccc(F)cc1F (stereo not drawn)
- MIC80 (Pichia kudriavzevii): 0.25 to 1 µg/mL (≈ 0.579 to 2.32 µM)
- MIC80 (Candida parapsilosis [13]): 0.25 to 1 µg/mL (≈ 0.579 to 2.32 µM)
- MIC80 (Candida tropicalis [14]): 0.25 to 1 µg/mL (≈ 0.579 to 2.32 µM)
- MIC80 (Cryptococcus neoformans [15]): 0.0156 µg/mL (≈ 0.0362 µM)
- MIC80 (Candida albicans [16]): 0.0156 µg/mL (≈ 0.0362 µM)

SMILES: OC(Cn1cncn1)(Cn1cnc(SCc2ccc(Cl)cc2Cl)n1)c1ccc(F)cc1F (stereo not drawn)
- MIC (Candida albicans [17]): 0.063 to 1 µg/mL (≈ 0.127 to 2.01 µM)
- MIC (Candida parapsilosis [18]): 0.063 to 1 µg/mL (≈ 0.127 to 2.01 µM)

SMILES: Cc1cc(C)cc(NC(=O)CN(C)CC(O)(Cn2cncn2)c2ccc(F)cc2F)c1 (stereo not drawn)
- MIC80 (Pichia kudriavzevii): 0.25 to 1 µg/mL (≈ 0.582 to 2.33 µM)
- MIC80 (Candida parapsilosis [13]): 0.25 to 1 µg/mL (≈ 0.582 to 2.33 µM)
- MIC80 (Candida tropicalis [14]): 0.25 to 1 µg/mL (≈ 0.582 to 2.33 µM)
- MIC80 (Cryptococcus neoformans [15]): 0.0156 µg/mL (≈ 0.0363 µM)
- MIC80 (Candida albicans [16]): 0.0156 µg/mL (≈ 0.0363 µM)

SMILES: COc1ccc(OCCCN(C)CC(O)(Cn2cncn2)c2ccc(F)cc2F)cc1 (stereo not drawn)
- MIC (Nannizzia gypsea): 0.001 to 0.016 µg/mL (≈ 0.00231 to 0.037 µM)
- MIC (Candida albicans [19]): 0.001 to 0.016 µg/mL (≈ 0.00231 to 0.037 µM)
- MIC (Trichophyton rubrum [20]): 0.001 to 0.016 µg/mL (≈ 0.00231 to 0.037 µM)
- MIC (Cryptococcus neoformans [21]): 0.001 to 0.016 µg/mL (≈ 0.00231 to 0.037 µM)
- MIC (Candida tropicalis [22]): 0.001 to 0.016 µg/mL (≈ 0.00231 to 0.037 µM)
